# Measured values as given in US20140350097A1, “TREATMENT OF HYPOTENSION ASSOCIATED WITH HEMODIALYSIS” (priority 2013, published 2014).
# How the values were obtained:
# Wistar rats = assay: Endotoxin (LPS)-induced shock in Wistar rats; assay type: in vivo, rat
# Description: For example, in Wistar rats, shock induced by endotoxin such as LPS (lipopolysaccharide from Salmonella typhosa) is accompanied by severe hypotension, as well known in the art. […] In addition, the survival rate was increased by NOX-100.
# Bacterial translocation across damaged intestinal epithelium into the circulation occurs in rats during endotoxin-induced shock, as evidenced by positive bacterial cultures grown from blood, mesenteric lymph nodes, spleen, or liver obtained after LPS challenge.
# Moreover, in the rat shock model, liver injury occurs as a result of hypoperfusion and Kupffer cell activation with the release of cytokines by LPS.
# albino rats = assay: Single dose infusion toxicity in albino rats; assay type: in vivo; conditions: single dose 1000, 1450 or 2000 mg/kg infused over 2 or 8 hours
# Protocol: Based on the preliminary I.V. and S.C. studies, doses of 1000, 1450 or 2000 mg/kg of NOX-100 administered over an 8-hour period were tested in albino rats. A total dose of 2000 mg/kg administered over a shorter period of 2 hours was then tested.
# beagle dogs = assay: Four-week repeated dose intravenous toxicity study in beagle dogs with two-week recovery; assay type: in vivo, dog
# Protocol: The objective of this study was to investigate the toxicity of NOX-100 when administered as a single intravenous injection once daily for four consecutive weeks to beagle dogs and to determine the reversibility of changes which were established as treatment related. In addition, the systemic exposure of the animals to the test substance was determined and evaluated for correlation with dose and time after starting treatment.
# NOX-100 was administered intravenously as a daily single dose (20 mL/kg administered over approximately 2.5 minutes) of 100, 300, and 1000 mg/kg for four weeks in Beagle dogs (n=17 dogs per gender−unbalanced randomization across treated groups). Following the termination of treatment, an additional group of dogs in the Control and highest dose group were held for a period of two weeks in order to determine if the potential treatment related changes were reversible.
# [1] = test system: rat model of shock induced by hemorrhage; assay: Hemorrhagic shock rat model; assay type: in vivo; conditions: rats, 0.1 mmol/kg/hour
# Description: Treatment of these rats with NOX-100 (0.1 mmol/kg/hour) reduced the blood volume needed to maintain the blood pressure during shock and improved mean arterial pressure after resuscitation.
# [2] = Pharmacokinetics after bolus administration in hemodialysis subjects; assay type: in vivo, human
# Description: FIG. 1 depicts the results of plasma Cmax of NOX-100 after bolus administration in hemodialysis subjects as a function of dose. See Example 4.
# FIG. 2 depicts the results of Area Under the Curve (AUC) of NOX-100 after bolus administration in hemodialysis subjects as a function of dose. See Example 4.
# FIG. 3 depicts a histogram of plasma clearance of NOX-100 during dialysis after bolus administration in hemodialysis subject as a function of dose. Legend (x-axis, left to right): 0.33, 1, 3, 9, 25 and 50, mg/kg NOX-100. See Example 4.
# Crj:CD(SD)IGS rats (SPF) = assay: Four-week repeated dose intravenous toxicity study in rats with two-week recovery; assay type: in vivo, rat
# Protocol: The objective of this study was to investigate the toxicity of NOX-100 when administered as a single intravenous injection once daily for four consecutive weeks to Sprague-Dawley (SPF) rats and to determine the reversibility of changes which were established as treatment related.
# NOX-100 was administered intravenously as a daily single dose (“pulse”) (40 mL/kg) at doses of 100, 500, and 2000 mg/kg/day for four weeks in Crj:CD(SD)IGS rats (SPF). The Control group was treated with saline (n=60 rats per gender−balanced randomization across all groups.) Following termination of treatment, an additional group of rats in the Control and highest dose group were held for a period of two weeks in order determine if the potential treatment related changes were reversible.
# mice = assay: Blood pressure studies in mice; assay type: in vivo
# Description: The lack of effect on normal blood pressure is advantageous for NOX-100 as a small molecule .NO scavenger.
# [3] = Water solubility and isotonicity of Sodium MGD; assay type: physicochemical
# Protocol: Sodium MGD is a white to slightly yellowish powder with 1.5 molecules of co-crystallized water, and is water soluble up to 35% w/v at approximately 25° C. A 4.5% (w/v) solution of the Sodium MGD in water without any additives affords a near isotonic solution.
# [4] = both, beagle, dog, in vivo, 4 weeks
# [5] = 24 hours after hemorrhagic shock
structure (smiles),measurement,setting,value
"CN(C[C@H](O)[C@@H](O)[C@H](O)[C@H](O)CO)C(=S)S [NOX-100, N-methyl-D-glucamine dithiocarbamate]",survival rate,"Wistar rats; Wistar rats, LPS shock",increased
same,LPS shock hypotension,"Wistar rats; Wistar rats, dose 0.3 mmol/kg",gradually reversed towards normal blood pressure levels
same,"plasma indices of liver injury (ornithine carbamoyltransferase, aspartate transaminase, fibrinogen)","Wistar rats; rat shock model, 200 mg/kg/day",all significantly reduced
same,reduction of bacterial translocation,"Wistar rats; rats, endotoxin-induced shock, prior infusion 200 mg/kg/day",about 70%
same,mortality,albino rats,no mortality
same,clinical observation: salivation,beagle dogs; [4],salivation in the 1000 mg/kg group
same,clinical observation: vomiting,beagle dogs; [4],vomiting in the 100 mg/kg or higher dose groups
same,"body weight, food consumption, hematology, EKG, ophthalmology or organ weights","beagle dogs; dog, in vivo",no changes
same,gender related difference in systemic exposure,"beagle dogs; dog, in vivo",no gender related difference
same,"incidence of vomiting after dosing, Treated groups versus group not dosed","beagle dogs; dog, in vivo",higher
same,microscopic changes due to study substance,"beagle dogs; dog, in vivo",no microscopic changes
same,reversibility of other changes,"beagle dogs; dog, in vivo",reversed completely or showed a tendency for reversal
same,site of main toxicological findings,"beagle dogs; dog, in vivo",kidneys and urinary bladder
same,systemic exposure (blood levels) versus dose,"beagle dogs; dog, in vivo",linear dose dependent increase
same,urine specific gravity and urine volume,"beagle dogs; dog, in vivo",decrease in specific gravity and increase in urine volume
same,histopathological examination: pelvic mucosa and urinary bladder,"beagle dogs; dog, in vivo, 1000 mg/kg","Inflammatory cell infiltration in the pelvic mucosa, and erosion of mucosa in the urinary bladder"
same,kidney histopathology of the moribund animal,"beagle dogs; dog, in vivo, 1000 mg/kg","moderate basophilia of the proximal renal tubules, pelvic mucosal epithelial hyperplasia, hyaline droplets in the proximal tubular epithelium and pelvic mucosal epithelium in the kidneys"
same,laboratory determinations of sodium,"beagle dogs; dog, in vivo, 1000 mg/kg",increased
same,"laboratory results on the day of necropsy, moribund animal","beagle dogs; dog, in vivo, 1000 mg/kg","an increased white cell count with increased segmented neutrophils and an increase in gamma GT, ALP, urea nitrogen, creatinine, glucose, cholesterol, phospholipids, triglyceride, total protein, albumin, inorganic phosphorus and magnesium and a decrease in sodium and chloride"
same,moribundity,"beagle dogs; dog, in vivo, 1000 mg/kg",became moribund six days after starting treatment
same,necropsy organ weights of the moribund animal,"beagle dogs; dog, in vivo, 1000 mg/kg","increased absolute and relative weight of the liver, kidneys and adrenals with a decrease noted in the thymus weight"
same,other histopathological findings in the moribund animal,"beagle dogs; dog, in vivo, 1000 mg/kg","follicular atrophy of the mesenteric lymph node, acute atrophy of the thymus, glycogen accumulation in the liver, erosion of mucosa in the urinary bladder, and hypertrophy of cortical cells in the fascicular zone of the adrenals"
same,renal papilla of the moribund animal,"beagle dogs; dog, in vivo, 1000 mg/kg",for the most part necrotic
same,no adverse effect level,"beagle dogs; dogs, pulse IV injection daily, four weeks",less than 100 mg/kg
same,clinical signs in the moribund animal,"beagle dogs; male, beagle, dog, in vivo, 1000 mg/kg","vomiting occurred on Days 1 to 6, no stools were passed on Days 4 to 6, decreased locomotor activity was noted on Days 5 to 6 and hypothermia and lateral position was noted on Day 6"
same,blood volume needed to maintain the blood pressure during shock,[1],reduced
same,mean arterial pressure after resuscitation,[1],improved
same,elevation of serum ornithine carbamoyltransferase (indicator of hepatic injury),[1]; [5],prevented
same,inflammatory gene expression,[1]; [5],prevented
same,transcription factor activation,[1]; [5],prevented
same,plasma clearance during dialysis versus dose,"[2]; 0.33-50 mg/kg, FIG. 3",decreased slightly with higher doses but the difference was not statistically significant
same,plasma Cmax versus dose,"[2]; bolus administration, hemodialysis subjects, FIG. 1",proportional to the dose
same,Area Under the Curve (AUC) versus dose,"[2]; bolus administration, hemodialysis subjects, FIG. 2",proportional to the dose
same,clearance,"[2]; human, plasma, intravenous, averaged clearance from the 1, 9, and 50 mg/kg cohorts, read-out: plasma clearance during dialysis",~3.3 mL/min/kg
same,food consumption or body weight gain versus Control,"Crj:CD(SD)IGS rats (SPF); rat, in vivo",no significant differences
same,ophthalmological examinations,"Crj:CD(SD)IGS rats (SPF); rat, in vivo",No changes
same,"reversibility after a two week period of bladder mucosal hyperplasia, proximal tubule basophilia and renal papillary edema","Crj:CD(SD)IGS rats (SPF); rat, in vivo",could not be confirmed
same,reversibility of urinary bladder change,"Crj:CD(SD)IGS rats (SPF); rat, in vivo",no clear-cut reversibility
same,"blood sodium, chloride and albumin","Crj:CD(SD)IGS rats (SPF); rat, in vivo, 2000 mg/kg",increased
same,cholesterol level,"Crj:CD(SD)IGS rats (SPF); rat, in vivo, 2000 mg/kg",increased
same,hemoglobin,"Crj:CD(SD)IGS rats (SPF); rat, in vivo, 2000 mg/kg",decrease
same,no adverse effect level,"Crj:CD(SD)IGS rats (SPF); rats, daily single i.v. dose, four weeks",100 mg/kg
same,effect on hypotensive effect of nitroprusside,mice; co-administration with sodium nitroprusside (.NO donor),reduced the hypotensive effect of nitroprusside
same,effect on blood pressure,mice; intravenous infusion of NOX-100 alone,did not affect blood pressure
same,water solubility,[3]; approximately 25° C.,up to 35 % w/v
same,concentration of solution in water that is near isotonic,[3]; in water without any additives,4.5 % (w/v)
